{
  "source": "patent US20110250132A1",
  "about": "“LIPOIC ACID METABOLITE: USEFUL FOR DRUG CARRIER, NANOPARTICLE CONJUGATE, IMAGING AND HYPERTHERMIA THERAPY” (priority 2010, published 2011)",
  "origin": "cited, not measured here",
  "key": {"[1]": {"settings": "accumulates in all neuronal cell types"}, "[2]": {"settings": "reduced form with two —SH groups"}, "[3]": {"system": "insulin-resistant rat skeletal muscle"}, "cataracts": {"system": "cataracts", "settings": "rats"}},
  "data": [
    {"smiles": "O=C(O)CCCCC1CCSS1", "note": "(stereo not drawn) [Alpha-lipoic acid]", "values": [
      {"measurement": "blood-brain barrier crossing", "setting": "[1]", "value": "readily crosses the blood-brain barrier"},
      {"measurement": "preventing iron accumulation", "setting": "lens epithelial cells", "value": "beneficial effects"}
    ]},
    {"smiles": "O=C(O)CCCC[C@@H](S)CCS", "note": "(racemic) [DHLA, dihydrolipoic acid]", "values": [
      {"measurement": "oxidation potential", "setting": "[2]", "value": "−0.29", "unit": "v"}
    ]},
    {"smiles": "O=C(O)CCCC[C@@H]1CCSS1", "note": "[R-alpha-lipoic acid]", "values": [
      {"measurement": "enhancing insulin-stimulated glucose transport and metabolism", "setting": "[3]", "value": "more effective than S-alpha-lipoic acid"},
      {"measurement": "preventing cataracts", "setting": "cataracts", "value": "more effective than racemic alpha-lipoic acid and S-alpha-lipoic acid"}
    ]}
  ]
}
